What was measured:
Test in all cases: relative viability (nuclei count vs DMSO), 5 days (fraction); higher = more cells survive
BAM7 + Pemetrexed = compound: CCOC1=CC=CC=C1N=NC2=C(NN(C2=O)C3=NC(=CS3)C4=CC=CC=C4)C [BAM7] + Nc1nc2[nH]cc(CCc3ccc(C(=O)N[C@@H](CCC(=O)O)C(=O)O)cc3)c2c(=O)[nH]1 [Pemetrexed] (partner 0.2 µM)
How it was run: (§1)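 Medians of duplicate plates are given as relative viability. That measure is the nuclei count in treated wells divided by the count in vehicle wells. Counts were taken on 4× images of lung cancer cell lines in 1536-well plates, 5 days after pin-tool dosing the day after seeding with one drug alone or a fixed anchor-drug dose plus five library-drug doses (not always all listed) in √10 steps.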

BAM7 + Bortezomib = compound: CCOC1=CC=CC=C1N=NC2=C(NN(C2=O)C3=NC(=CS3)C4=CC=CC=C4)C [BAM7] + CC(C)C[C@H](NC(=O)[C@H](Cc1ccccc1)NC(=O)c1cnccn1)B(O)O [Bortezomib] (partner 0.002 µM)
How it was run: as §1

[1] = compound: CCn1c(-c2nonc2N)nc2c(C#CC(C)(C)O)ncc(OC[C@H]3CCCNC3)c21 + N=C(N)NC(=N)NCCc1ccccc1 [Phenformin] (partner 250 µM)
How it was run: as §1

BAM7 = compound: CCOC1=CC=CC=C1N=NC2=C(NN(C2=O)C3=NC(=CS3)C4=CC=CC=C4)C [BAM7]
How it was run: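 Vehicle-anchored 1536-well plates of lung cancer cell lines, held overnight at 37 °C, were pinned with five library-drug doses (not always all listed) spaced by √10. No medium change followed over the next 5 days, after which the cells were fixed, permeabilised and Hoechst-stained together and imaged at 4×. Nuclei were counted with MetaXpress, and viability is treated-well nuclei over vehicle-well nuclei, taken as a median across plates. Plates passed with control CV below 25% and at least one doubling.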

Cell Line	relative viability (BAM7 + Pemetrexed; first compound 0.5 µM)	relative viability (BAM7 + Pemetrexed; first compound 5 µM)	relative viability (BAM7 + Pemetrexed; first compound 15.81 µM)	relative viability (BAM7 + Pemetrexed; first compound 50 µM)	relative viability (BAM7 + Bortezomib; first compound 0.5 µM)	relative viability (BAM7 + Bortezomib; first compound 5 µM)	relative viability (BAM7 + Bortezomib; first compound 15.81 µM)	relative viability (BAM7 + Bortezomib; first compound 50 µM)	relative viability ([1]; first compound 0.01 µM)	relative viability ([1]; first compound 0.03162 µM)	relative viability ([1]; first compound 0.1 µM)	relative viability ([1]; first compound 0.3162 µM)	relative viability ([1]; first compound 1 µM)	relative viability (BAM7; 0.5 µM)	relative viability (BAM7; 5 µM)	relative viability (BAM7; 15.81 µM)	relative viability (BAM7; 50 µM)
NCI-H23	0.832	0.851	0.622	0.709	1.23	1.05	0.933	1.12	0.729	0.783	0.817	0.8	0.781	1.21	1.06	1.04	1.06
NCI-H322M	0.622	0.64	0.645	0.582	1.2	1.2	1.05	1.02	0.717	0.727	0.677	0.7	0.744	0.922	0.96	1	0.991
NCI-H441	0.299	0.252	0.277	0.242	0.48	0.453	0.464	0.447	0.824	0.888	0.833	0.801	0.715	1.16	1.06	1.1	1.44
NCI-H460	0.0639	0.0614	0.0597	0.0573	1.38	1.1	1.04	1.01	0.518	0.561	0.523	0.495	0.541	1.02	0.989	0.895	0.969
NCI-H520	0.696	0.776	0.626	0.569	0.625	0.75	0.441	0.708	0.424	0.561	0.303	0.236	0.233	1	1.02	1.01	1.09
NCI-H596	0.544	0.498	0.452	0.559	1.01	1.13	0.889	1.25	0.74	0.7	0.727	0.744	0.761	0.965	1.08	0.957	1.07
NCI-H647	0.168	0.2	0.188	0.17	1.11	0.936	1.03	1.1	0.595	0.573	0.554	0.399	0.345	1.02	1.07	0.894	1.07
NCI-H650	1.03	0.979	0.987	1	0.884	0.948	0.878	0.885	0.435	0.414	0.429	0.415	0.444	0.944	1.1	0.955	1.22
NCI-H661	0.949	0.973	0.921	0.917	0.807	0.738	0.656	0.827	0.277	0.259	0.265	0.145	0.239	0.984	1.03	0.965	1.03
NCI-H838	0.293	0.259	0.249	0.231	0.771	0.961	0.631	1.1	0.564	0.557	0.685	0.521	0.583	1.03	1.04	0.946	1.06
NCI-H1355	1.08	0.978	1	1.01	1.2	1.16	1.13	1.11	0.488	0.458	0.417	0.434	0.483	0.971	0.888	0.862	0.91
NCI-H1437	0.308	0.304	0.33	0.372	0.537	0.412	0.395	0.551	0.331	0.34	0.293	0.239	0.306	0.991	1.02	0.928	1.01
NCI-H1563	0.778	0.853	0.813	0.633	0.972	0.82	0.899	1.06	0.623	0.618	0.701	0.63	0.649	0.967	1.04	0.995	1.02
NCI-H1650	0.336	0.399	0.399	0.354	0.235	0.297	0.202	0.199	0.457	0.478	0.404	0.277	0.303	1.02	0.884	0.826	1.04
NCI-H1651	0.548	0.586	0.639	0.569	0.992	0.917	0.988	0.926	0.353	0.387	0.382	0.28	0.337	1.02	1	1	1.05
NCI-H1666	0.919	0.846	0.82	0.82	0.852	0.682	0.729	0.998	0.614	0.539	0.539	0.987	0.534	1.03	1	1.09	1.05
NCI-H1734	0.437	0.415	0.382	0.411	1.13	1.12	0.888	0.978	0.365	0.425	0.335	0.323	0.267	1.03	1.07	1	1.1
NCI-H1755	0.401	0.417	0.423	0.408	1.02	1.01	0.949	0.95	0.604	0.606	0.614	0.613	0.605	1.02	1.03	0.978	1.02

Reference: the supplement of paper PMC10307832
